The values that follow are results of earlier work, collected in patent publication US20020179884A1, “Disinfecting and deodorizing agent” (priority 2000, published 2002).

The structures appear in SMILES notation.

For the data set the following is noted: 25° C.
Consider `O=BOB(O)OB(O)OB=O` [sodium tetraborate], for which the pKa25 is given as 9.24. Regarding `O=C([O-])O.[Na+]` [sodium hydrogencarbonate], the pKa25 is recorded as 10.33.

On to `O=P([O-])([O-])OP(=O)([O-])O.[Na+].[Na+].[Na+]` [trisodium pyrophosphate], for which the pKa25 is 8.95. As for `O=P(O)(O)OP(=O)(O)OP(=O)(O)O` [sodium tripolyphosphate], the pKa25 is reported as 9.70.
